Patent US20040014740A1 (priority 2002, published 2004)

Tested on: binding site of a radiolabelled ligand (assay of U.S. Patent No. 5,859,188)
Test: binding assay as described in U.S. Patent No. 5,859,188: percent displacement of a radiolabelled ligand
Details: for Testing Result % inhibition at indicated concentration / Testing Result % inhibition at indicated concentration, Test 1: percent displacement of radiolabelled ligand; for Testing Result % inhibition at indicated concentration, Test 2: concentration not given for Test 2
Method: Selected compounds were evaluated for their anti-parasitic activity in a binding assay as described in U.S. Patent No. 5,859,188 (Geary, et.al., 1999). Results of the evaluations are given in the following Table wherein % inhibition means percent displacement of a radiolabelled ligand as described.

| Testing Result % inhibition at indicated concentration (25 uM) | Testing Result % inhibition at indicated concentration, Test 1 (25 uM) | Testing Result % inhibition at indicated concentration, Test 2 | SMILES | further results |
| --- | --- | --- | --- | --- |
| 68-75% at 25 uM |  |  | CCOC(=O)c1c(NC(=O)CN2CCCC2)sc2c1CCCC2 [g, ethyl 2-[(pyrrolidin-1-ylacetyl)amino]-4,5,6,7-tetrahydro-1-benzothiophene-3-carboxylate] |  |
|  | 48-51% | 0-14% | CCOC(=O)c1c(NC(=O)CN2CCCCC2)sc2c1CCN(Cc1ccccc1)C2 [u, ethyl 6-benzyl-2-[(piperidin-1-ylacetyl)amino]-4,5,6,7-tetrahydrothieno[2,3-c]pyridine-3-carboxylate] |  |
|  | 15-43% | 14-17% | CCOC(=O)c1c(-c2ccncc2)csc1NC(=O)CN1CCCCC1 [v, ethyl 2-[(piperidin-1-ylacetyl)amino]-4-pyridin-4-ylthiophene-3-carboxylate] |  |
| 83-88% at 25 uM |  |  | CCOC(=O)c1c(NC(=O)CN2CCCC2)sc2c1CCC2 [j, ethyl 2-[(pyrrolidin-1-ylacetyl)amino]-5,6-dihydro-4H-cyclopenta[b]thiophene-3-carboxylate] |  |
| 77-70% at 25 uM |  |  | CCOC(=O)c1c(NC(=O)CN2CCCCCC2)sc2c1CCC2 [k, ethyl 2-[(azepan-1-ylacetyl)amino]-5,6-dihydro-4H-cyclopenta[b]thiophene-3-carboxylate] |  |
| 35% at 25 uM |  |  | CCOC(=O)c1c(NC(=O)CN2CCCCC2)sc(Cl)c1-c1ccccc1 [l, ethyl 5-chloro-4-phenyl-2-[(piperidin-1-ylacetyl)amino]thiophene-3-carboxylate] |  |
| 36% at 25 uM |  |  | CCOC(=O)c1c(NC(=O)CN2CCCCC2)sc2c1CCC(c1ccccc1)C2 (stereo not shown) [m, ethyl 6-phenyl-2-[(piperidin-1-ylacetyl)amino]-4,5,6,7-tetrahydro-1-benzothiophene-3-carboxylate] |  |
| 0-9% at 25 uM |  |  | CC(C)OC(=O)c1c(-c2ccc(Cl)c(Cl)c2)csc1NC(=O)CN1CCCCC1 [dd, isopropyl 4-(3,4-dichlorophenyl)-2-[(piperidin-1-ylacetyl)amino]thiophene-3-carboxylate] |  |
| 31-34% at 25 uM |  |  | CCOC(=O)c1c(NC(=O)CN2CCC(O)CC2)sc2c1CCCC2 [ff, ethyl 2-{[(4-hydroxypiperidin-1-yl)acetyl]amino}-4,5,6,7-tetrahydro-1-benzothiophene-3-carboxylate] |  |
|  | 46-73% | 38-40% | CCOC(=O)c1c(NC(=O)C(C)N2CCCCC2)sc2c1CCCC2 (stereo not shown) [o, ethyl 2-[(2-piperidin-1-ylpropanoyl)amino]-4,5,6,7-tetrahydro-1-benzothiophene-3-carboxylate] |  |
|  | 93-100% | 69-79% | CCOC(=O)c1c(NC(=O)CN2CCCCC2)sc2c1CC(C)(CC)OC2 (stereo not shown) [s, ethyl 5-ethyl-5-methyl-2-[(piperidin-1-ylacetyl)amino]-4,7-dihydro-5H-thieno[2,3-c]pyran-3-carboxylate] |  |
|  | 50-52% | 33-49% | CCOC(=O)c1c(NC(=O)CN2CCCCC2)sc2c1CCN(C(=O)OCC)C2 [p, diethyl 2-[(piperidin-1-ylacetyl)amino]-4,7-dihydrothieno[2,3-c]pyridine-3,6(5H)-dicarboxylate] |  |
|  | 82% | 53% | CCOC(=O)C1=C(NC(=O)CN2CCCCC2)SC2CCCCCC12 (stereo not shown) [C] |  |
|  | 42% | 26% | CCOC(=O)c1c(-c2ccc(C)cn2)csc1NC(=O)CN1CCCCC1 [r, ethyl 4-(5-methylpyridin-2-yl)-2-[(piperidin-1-ylacetyl)amino]thiophene-3-carboxylate] |  |
|  | 52-65% | 33-54% | CCCOC(=O)c1c(NC(=O)CN2CCCCC2)sc2c1CCCC2 [y, propyl 2-[(piperidin-1-ylacetyl)amino]-4,5,6,7-tetrahydro-1-benzothiophene-3-carboxylate] |  |
| 13% at 25 uM |  |  | CCOC(=O)c1c(NC(=O)CN2CCCCC2)sc2c1CCC(C(C)(C)C)C2 (stereo not shown) [n, ethyl 6-tert-butyl-2-[(piperidin-1-ylacetyl)amino]-4,5,6,7-tetrahydro-1-benzothiophene-3-carboxylate] |  |

| Testing Result % inhibition at indicated concentration (25 uM) | Testing Result % inhibition at indicated concentration, Test 1 (25 uM) | Testing Result % inhibition at indicated concentration, Test 2 | SMILES | further results |
| --- | --- | --- | --- | --- |
| 38% at 25 uM |  |  | CCOC(=O)C1=C(NC(=O)CN2CCOCC2)SC2CCCCCC12 (stereo not shown) [Compound D] |  |
| 46% at 25 uM |  |  | CCOC(=O)c1c(NC(=O)CN2CCCCCC2)sc2c1CCCC2 [h, ethyl 2-[(azepan-1-ylacetyl)amino]-4,5,6,7-tetrahydro-1-benzothiophene-3-carboxylate] |  |
|  | 55-70% | 41-55% | COC(=O)c1c(NC(=O)CN2CCCCC2)sc2c1CCCC2 [x, methyl 2-[(piperidin-1-ylacetyl)amino]-4,5,6,7-tetrahydro-1-benzothiophene-3-carboxylate] |  |
| 61-72% at 25 uM |  |  | CCOC(=O)c1c(NC(=O)CN2CCCCC2)sc2c1CCS2 [ee, ethyl 2-[(piperidin-1-ylacetyl)amino]-4,5-dihydrothieno[2,3-b]thiophene-3-carboxylate] |  |
| 28% at 25 uM |  |  | CCOC(=O)c1c(NC(=O)CN2CCC2)sc2c1CCCC2 [i, ethyl 2-[(azetidin-1-ylacetyl)amino]-4,5,6,7-tetrahydro-1-benzothiophene-3-carboxylate] |  |
|  |  |  | CCOC(=O)c1c(NC(=O)CN2CCCCC2)sc2c1CCC2 [A, ethyl 2-{[2-(1-piperidinyl)acetyl]amino}-5,6-dihydro-4H-cyclopenta[b]thiophene-3-carboxylate] | Testing Result % inhibition at indicated concentration (3 uM): 69% at 3 uM |
| 68-73% at 25 uM |  |  | CCOC(=O)c1c(NC(=O)CN2CCCC(O)C2)sc2c1CCCC2 (stereo not shown) [gg, ethyl 2-{[(3-hydroxypiperidin-1-yl)acetyl]amino}-4,5,6,7-tetrahydro-1-benzothiophene-3-carboxylate] |  |
|  | 46-66% | 37-43% | CCOC(=O)c1cc(-c2ccsc2)sc1NC(=O)CN1CCCCC1 [aa, ethyl 5-[(piperidin-1-ylacetyl)amino]-2,3′-bithiophene-4-carboxylate] |  |
|  | 40-63% | 18-38% | CCOC(=O)c1c(-c2ccsc2)csc1NC(=O)CN1CCCCC1 [bb, ethyl 5-[(piperidin-1-ylacetyl)amino]-3,3′-bithiophene-4-carboxylate] |  |
|  | 58-70% | 39-47% | CCOC(=O)c1c(C)csc1NC(=O)CN1CCCCC1 [w, ethyl 4-methyl-2-[(piperidin-1-ylacetyl)amino]thiophene-3-carboxylate] |  |
|  | 65-74% | 15-22% | CCOC(=O)c1c(NC(=O)CN2CCCCC2)sc2c1CC(C)CC2 (stereo not shown) [q, ethyl 5-methyl-2-[(piperidin-1-ylacetyl)amino]-4,5,6,7-tetrahydro-1-benzothiophene-3-carboxylate] |  |
|  | 70-75% | 24-40% | CCOC(=O)c1c(-c2ccco2)csc1NC(=O)CN1CCCCC1 [t, ethyl 4-(2-furyl)-2-[(piperidin-1-ylacetyl)amino]thiophene-3-carboxylate] |  |
| 34-54% at 25 uM |  |  | CC(C)OC(=O)c1c(NC(=O)CN2CCCCC2)sc2c1CCCC2 [cc, isopropyl 2-[(piperidin-1-ylacetyl)amino]-4,5,6,7-tetrahydro-1-benzothiophene-3-carboxylate] |  |
|  | 44-55% | 37-43% | CCOC(=O)c1c(-c2ccc(Br)cc2)csc1NC(=O)CN1CCCCC1 [z, ethyl 4-(4-bromophenyl)-2-[(piperidin-1-ylacetyl)amino]thiophene-3-carboxylate] |  |
|  |  |  | CCOC(=O)c1c(NC(=O)CN2CCCCC2)sc2c1CCCC2 [Compound B] | Testing Result % inhibition at indicated concentration (1 uM): 59% at 1 uM |
